From patent US20240247080A1, “GLP1/GIP/NPY2 RECEPTOR TRIPLE AGONISTS” (Boehringer Ingelheim International GmbH, priority 2022, published 2024)
Read-outs that look alike come from different tables or passages of the source. Starred links: 1 amine or outer side, 2 acyl side, 3 side chain; linkers in the order of their positions; H or OH if unused. Non-standard residues stand in square brackets, D forms with d. Groups on a side chain read outwards from the residue. *: point of attachment. C20 diacid = O=C(O)CCCCCCCCCCCCCCCCCCC(=O)*; C18 diacid = O=C(O)CCCCCCCCCCCCCCCCC(=O)*; γGlu = O=C(O)[C@H](CCC(=O)[*:2])N[*:1]; εLys = N[C@@H](CCCCN[*:1])C(=O)[*:2]; AEEA = NCCOCCOCC(=O)O; Aib = CC(C)(N)C(=O)O

Legend:
Type in all cases: cell-based
hGIPR = target: T1, hGIPR (Homo sapiens, UniProt P48546); test: hGIPR CreLuc reporter gene assay in 0.5% and 100% plasma
T1 construct: expressed in transfected cells; host or cells: CHO cells carrying a CRE-luciferase reporter gene
T1 sequence (P48546 22-466): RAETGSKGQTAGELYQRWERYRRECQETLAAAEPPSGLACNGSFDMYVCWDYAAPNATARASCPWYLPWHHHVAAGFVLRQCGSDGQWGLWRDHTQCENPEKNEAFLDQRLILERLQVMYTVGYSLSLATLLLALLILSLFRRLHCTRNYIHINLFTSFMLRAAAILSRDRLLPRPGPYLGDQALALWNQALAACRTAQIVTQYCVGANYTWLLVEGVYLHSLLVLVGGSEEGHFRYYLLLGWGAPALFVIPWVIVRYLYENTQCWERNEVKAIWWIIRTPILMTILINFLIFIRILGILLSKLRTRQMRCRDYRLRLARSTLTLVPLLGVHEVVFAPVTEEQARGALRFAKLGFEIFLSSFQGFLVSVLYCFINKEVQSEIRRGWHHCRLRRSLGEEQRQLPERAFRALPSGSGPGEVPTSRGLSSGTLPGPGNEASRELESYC
Procedure, shortened: (§1)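 HEK-293 cells co-expressing GLP-1 or NPY2 receptor and CHO cells expressing GIP receptor, each carrying a CRE-driven luciferase reporter, were stimulated with peptides for 4 hours at 37 °C. Luminescence was read after Bright-Glo addition. EC50 came from 8-point, four-decade curves fitted by variable-slope non-linear regression.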

hNPY2R = target: T2, hNPY2R (Homo sapiens, UniProt P49146); test: hNPY2R CreLuc reporter gene assay in 0.5% and 100% plasma
T2 construct: expressed in transfected cells; host or cells: HEK-293 cells carrying a CRE-luciferase reporter gene
T2 sequence (P49146 1-381): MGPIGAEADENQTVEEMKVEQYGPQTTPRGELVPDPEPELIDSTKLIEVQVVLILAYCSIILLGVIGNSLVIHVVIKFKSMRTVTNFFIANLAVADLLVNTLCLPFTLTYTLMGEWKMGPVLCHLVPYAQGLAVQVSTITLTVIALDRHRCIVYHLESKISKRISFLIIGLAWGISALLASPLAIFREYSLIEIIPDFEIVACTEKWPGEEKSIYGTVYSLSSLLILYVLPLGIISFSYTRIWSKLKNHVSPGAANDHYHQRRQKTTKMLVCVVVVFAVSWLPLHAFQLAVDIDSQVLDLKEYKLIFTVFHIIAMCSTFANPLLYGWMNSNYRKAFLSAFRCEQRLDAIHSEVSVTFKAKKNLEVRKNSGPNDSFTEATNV
Procedure, shortened: as §1

hGLP1R = target: T3, hGLP1R (Homo sapiens, UniProt P43220); test: hGLP1R CreLuc reporter gene assay in 0.5% and 100% plasma
T3 construct: expressed in transfected cells; host or cells: HEK-293 cells carrying a CRE-luciferase reporter gene
Procedure, shortened: as §1

[1] = CreLuc reporter gene assay, 0.5% human plasma, read-out: hGIPR 0.5% hP
[2] = CreLuc reporter gene assay, 100% human plasma, read-out: hGIPR 100% hP
[3] = CreLuc reporter gene assay, 0.5% human plasma, read-out: hNPY2R 0.5% hP
[4] = CreLuc reporter gene assay, 0.5% human plasma, read-out: hGLP1R 0.5% hP
[5] = CreLuc reporter gene assay, 100% human plasma, read-out: hGLP1R 100% hP
[6] = CreLuc reporter gene assay, 100% human plasma, read-out: hNPY2R 100% hP

T3 sequence (P43220 24-463): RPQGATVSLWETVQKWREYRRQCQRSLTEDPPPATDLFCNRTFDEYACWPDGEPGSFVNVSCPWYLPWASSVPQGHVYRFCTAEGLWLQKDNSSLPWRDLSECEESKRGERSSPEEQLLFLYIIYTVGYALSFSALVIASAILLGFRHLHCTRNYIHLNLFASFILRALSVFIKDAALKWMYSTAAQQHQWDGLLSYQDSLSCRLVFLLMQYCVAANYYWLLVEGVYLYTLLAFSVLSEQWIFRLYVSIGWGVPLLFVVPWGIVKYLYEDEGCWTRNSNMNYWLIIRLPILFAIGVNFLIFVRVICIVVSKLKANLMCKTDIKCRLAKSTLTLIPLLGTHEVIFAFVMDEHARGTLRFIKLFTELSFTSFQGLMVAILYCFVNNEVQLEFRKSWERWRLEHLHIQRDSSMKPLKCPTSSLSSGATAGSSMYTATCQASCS

Molecule	EC50 (hGIPR; [1]) [nM]	EC50 (hGIPR; [2]) [nM]	EC50 (hNPY2R; [3]) [nM]	EC50 (hGLP1R; [4]) [nM]	EC50 (hGLP1R; [5]) [nM]	EC50 (hNPY2R; [6]) [nM]	EC50 (hGIPR; hGIPR 0.5% hP) [nM]	EC50 (hNPY2R; hNPY2R 0.5% hP) [nM]	EC50 (hGLP1R; hGLP1R 0.5% hP) [nM]	EC50 (hGLP1R; hGLP1R 100% hP) [nM]
CC[C@H](C)[C@H](NC(=O)[C@H](CC(C)C)NC(=O)[C@H](Cc1c[nH]c2ccccc12)NC(=O)[C@H](CCC(=O)O)NC(=O)[C@@H](NC(=O)[C@H](Cc1ccccc1)NC(=O)[C@H](C)NC(=O)C(C)(C)NC(=O)[C@H](CCC(N)=O)NC(=O)[C@H](C)NC(=O)[C@H](CCC(N)=O)NC(=O)[C@H](CCCCN)NC(=O)[C@H](CCC(=O)O)NC(=O)[C@H](CC(C)C)NC(=O)C(C)(C)NC(=O)[C@@H](NC(=O)[C@H](CO)NC(=O)[C@H](Cc1ccc(O)cc1)NC(=O)[C@H](CC(=O)O)NC(=O)[C@H](CO)NC(=O)[C@@H](NC(=O)[C@H](Cc1ccccc1)NC(=O)[C@@H](NC(=O)CNC(=O)[C@H](CC(=O)O)NC(=O)C(C)(C)NC(=O)[C@@H](N)Cc1ccc(O)cc1)[C@@H](C)O)[C@@H](C)O)[C@@H](C)CC)C(C)C)C(=O)N[C@@H](CCCCNC(=O)[C@@H](N)CCCCNC(=O)CC[C@H](NC(=O)CC[C@H](NC(=O)CC[C@H](NC(=O)CC[C@H](NC(=O)CC[C@H](NC(=O)CC[C@H](NC(=O)CCCCCCCCCCCCCCCCCCC(=O)O)C(=O)O)C(=O)O)C(=O)O)C(=O)O)C(=O)O)C(=O)O)C(=O)NCC(=O)NCC(=O)N1CCC[C@H]1C(=O)N[C@@H](CO)C(=O)N[C@@H](CO)C(=O)NCC(=O)N[C@@H](C)C(=O)N[C@@H](CO)C(=O)N[C@@H](CC(C)C)C(=O)N[C@@H](CCCNC(=N)N)C(=O)N[C@@H](Cc1c[nH]cn1)C(=O)N[C@@H](Cc1ccc(O)cc1)C(=O)N[C@@H](Cc1ccc(O)cc1)C(=O)N[C@@H](CC(N)=O)C(=O)N[C@@H](Cc1c[nH]c2ccccc12)C(=O)N[C@@H](CC(C)C)C(=O)N[C@H](C(=O)N[C@@H](CCCNC(=N)N)C(=O)N[C@@H](CCC(N)=O)C(=O)N[C@@H](CCCNC(=N)N)C(=O)N[C@@H](Cc1ccc(O)cc1)C(N)=O)[C@@H](C)O [Compound 87, Y-Aib-D-G-T-F-T-S-D-Y-S-I-Aib-L-E-K-Q-A-Q-Aib-A-F-V-E-W-L-I-K(1,3)-GGPSSGASLRHYYNWLTRQRY-NH2.C20DA-gGlu-gGlu-gGlu-gGlu-gGlu-gGlu-eLys(1,2)]							0.58	20.7	0.08	2
H-Y[Aib]EGTFTSDYSI[Aib]LEKQAQ[Aib]AFVEWLIK([γGlu-γGlu-γGlu-γGlu-C18 diacid])GGPSEGASLRHYYNWLTRQRY-NH2 [Compound 294, Y-Aib-E-G-T-F-T-S-D-Y-S-I-Aib-L-E-K-Q-A-Q-Aib-A-F-V-E-W-L-I-K(1,3)-GGPSEGASLRHYYNWLTRQRY-NH2.C18DA-gGlu-gGlu-gGlu-gGlu(1,2)]	0.21	0.89		0.08		55.2				
H-Y[Aib]EGTFTSDYSI[Aib]LEKQAQ[Aib]AFVQWLIK([γGlu-γGlu-γGlu-γGlu-γGlu-γGlu-C18 diacid])GGPSEGASLRHYYNWLTRQRY-NH2 [Compound 252, Y-Aib-E-G-T-F-T-S-D-Y-S-I-Aib-L-E-K-Q-A-Q-Aib-A-F-V-Q-W-L-I-K(1,3)-GGPSEGASLRHYYNWLTRQRY-NH2.C18DA-gGlu-gGlu-gGlu-gGlu-gGlu-gGlu(1,2)]	0.29	1.25		0.1	2.59	33.5				
H-Y[Aib]EGTFTSDYSI[Aib]LEKQAQ[Aib]AFVEWLIK([εLys-γGlu-γGlu-γGlu-γGlu-γGlu-C20 diacid])GGPEEGASLRHYYNWLTRQRY-NH2 [Compound 230, Y-Aib-E-G-T-F-T-S-D-Y-S-I-Aib-L-E-K-Q-A-Q-Aib-A-F-V-E-W-L-I-K(1,3)-GGPEEGASLRHYYNWLTRQRY-NH2.C20DA-gGlu-gGlu-gGlu-gGlu-gGlu-eLys(1,2)]	0.28	1.43	15.4	0.29						
H-Y[Aib]EGTFTSDYSI[Aib]LEKQAQ[Aib]AFVEWLIK([εLys-γGlu-γGlu-γGlu-γGlu-γGlu-γGlu-γGlu-C20 diacid])GGPSEGASLRHYYNWLTRQRY-NH2 [Compound 288, Y-Aib-E-G-T-F-T-S-D-Y-S-I-Aib-L-E-K-Q-A-Q-Aib-A-F-V-E-W-L-I-K(1,3)-GGPSEGASLRHYYNWLTRQRY-NH2.C20DA-gGlu-gGlu-gGlu-gGlu-gGlu-gGlu-gGlu-eLys(1,2)]	0.51	2.43	14.3	0.17		36.8				

More lines, main results first:

EC50 (hGIPR; [1]) [nM]	EC50 (hGIPR; [2]) [nM]	EC50 (hNPY2R; [3]) [nM]	EC50 (hGLP1R; [4]) [nM]	EC50 (hGLP1R; [5]) [nM]	EC50 (hNPY2R; [6]) [nM]	Molecule	EC50 (hGIPR; hGIPR 0.5% hP) [nM]	EC50 (hNPY2R; hNPY2R 0.5% hP) [nM]	EC50 (hGLP1R; hGLP1R 0.5% hP) [nM]	EC50 (hGLP1R; hGLP1R 100% hP) [nM]
0.15	1.14	17.5	0.15			H-Y[Aib]EGTFTSDYSI[Aib]LEEQAQ[Aib]AFVEWLIK([εLys-AEEA-γGlu-γGlu-γGlu-γGlu-γGlu-C20 diacid])GGPSSGASLRHYYNWLTRQRY-NH2 [Compound 110, Y-Aib-E-G-T-F-T-S-D-Y-S-I-Aib-L-E-E-Q-A-Q-Aib-A-F-V-E-W-L-I-K(1,3)-GGPSSGASLRHYYNWLTRQRY-NH2.C20DA-gGlu-gGlu-gGlu-gGlu-gGlu-OEG-eLys(1,2)]				
0.19	1.25	17.8	0.13	1.78		CC[C@H](C)[C@H](NC(=O)[C@H](CC(C)C)NC(=O)[C@H](Cc1c[nH]c2ccccc12)NC(=O)[C@H](CCC(N)=O)NC(=O)[C@@H](NC(=O)[C@H](Cc1ccccc1)NC(=O)[C@H](C)NC(=O)C(C)(C)NC(=O)[C@H](CCC(N)=O)NC(=O)[C@H](C)NC(=O)[C@H](CCC(N)=O)NC(=O)[C@H](CCCCN)NC(=O)[C@H](CCC(=O)O)NC(=O)[C@H](CC(C)C)NC(=O)C(C)(C)NC(=O)[C@@H](NC(=O)[C@H](CO)NC(=O)[C@H](Cc1ccc(O)cc1)NC(=O)[C@H](CC(=O)O)NC(=O)[C@H](CO)NC(=O)[C@@H](NC(=O)[C@H](Cc1ccccc1)NC(=O)[C@@H](NC(=O)CNC(=O)[C@H](CCC(=O)O)NC(=O)C(C)(C)NC(=O)[C@@H](N)Cc1ccc(O)cc1)[C@@H](C)O)[C@@H](C)O)[C@@H](C)CC)C(C)C)C(=O)N[C@@H](CCCCNC(=O)[C@@H](N)CCCCNC(=O)[C@H](CCC(=O)O)NC(=O)[C@H](CCC(=O)O)NC(=O)[C@H](CCC(=O)O)NC(=O)[C@H](CCC(=O)O)NC(=O)[C@H](CCC(=O)O)NC(=O)[C@H](CCC(=O)O)NC(=O)CCCCCCCCCCCCCCCCC(=O)O)C(=O)NCC(=O)NCC(=O)N1CCC[C@H]1C(=O)N[C@@H](CO)C(=O)N[C@@H](CCC(=O)O)C(=O)NCC(=O)N[C@@H](C)C(=O)N[C@@H](CO)C(=O)N[C@@H](CC(C)C)C(=O)N[C@@H](CCCNC(=N)N)C(=O)N[C@@H](Cc1c[nH]cn1)C(=O)N[C@@H](Cc1ccc(O)cc1)C(=O)N[C@@H](Cc1ccc(O)cc1)C(=O)N[C@@H](CC(N)=O)C(=O)N[C@@H](Cc1c[nH]c2ccccc12)C(=O)N[C@@H](CC(C)C)C(=O)N[C@H](C(=O)N[C@@H](CCCNC(=N)N)C(=O)N[C@@H](CCC(N)=O)C(=O)N[C@@H](CCCNC(=N)N)C(=O)N[C@@H](Cc1ccc(O)cc1)C(N)=O)[C@@H](C)O [Compound 249, Y-Aib-E-G-T-F-T-S-D-Y-S-I-Aib-L-E-K-Q-A-Q-Aib-A-F-V-Q-W-L-I-K(1,3)-GGPSEGASLRHYYNWLTRQRY-NH2.C18DA-E-E-E-E-E-E-eLys(1,2)]				
0.43	3.01	13.5	0.14	2.48	85.7	H-Y[Aib]EGTFTSDYSI[Aib]LEEQAQ[Aib]AFVEWLIK([εLys-γGlu-γGlu-γGlu-γGlu-γGlu-γGlu-C20 diacid])GGPSSGASLRHYYNWLTRQRY-NH2 [Compound 116, Y-Aib-E-G-T-F-T-S-D-Y-S-I-Aib-L-E-E-Q-A-Q-Aib-A-F-V-E-W-L-I-K(1,3)-GGPSSGASLRHYYNWLTRQRY-NH2.C20DA-gGlu-gGlu-gGlu-gGlu-gGlu-gGlu-eLys(1,2)]				
0.98		13		14.2		H-Y[Aib]EGTFTSDYSI[Aib]LEAAKQ[Aib]AFVEWLIK([εLys-γGlu-γGlu-γGlu-γGlu-γGlu-γGlu-C20 diacid])GGPSSGASLRHYYNWLTRQRY-NH2 [Compound 25, Y-Aib-E-G-T-F-T-S-D-Y-S-I-Aib-L-E-A-A-K-Q-Aib-A-F-V-E-W-L-I-K(1,3)-GGPSSGASLRHYYNWLTRQRY-NH2.C20DA-gGlu-gGlu-gGlu-gGlu-gGlu-gGlu-eLys(1,2)]				
